According to patent US7563613B2, “Detoxification and decontamination using nanotechnology therapy” (University of Florida, priority 2001, dated 2009):
Blank lines part the entries; values can stand above or below the molecule they belong to.

What was measured:
[1] = test system: guinea pig isolated hearts; experiment: bupivacaine-induced QRS prolongation in isolated hearts (FIG. 8); details: bupivacaine (1 μM); isolated hearts paced at 200 BPM
[2] = cited from earlier work
[3] = at toxic plasma concentration; cited from earlier work

QRS prolongation [1]: induces QRS prolongation
SMILES: CCCCN1CCCCC1C(=O)Nc1c(C)cccc1C (stereo not shown) [Bupivacaine, bupivacaine]

SMILES: C[C@H]1O[C@@H](O[C@H]2[C@@H](O)C[C@H](O[C@H]3[C@@H](O)C[C@H](O[C@H]4CC[C@@]5(C)[C@H](CC[C@@H]6[C@@H]5C[C@@H](O)[C@]5(C)[C@@H](C7=CC(=O)OC7)CC[C@]65O)C4)O[C@@H]3C)O[C@@H]2C)C[C@H](O)[C@@H]1O [digoxin]
concentration at which toxicity is caused ([2]; low concentrations): approximately 1 nM

SMILES: CN(C)CCC=C1c2ccccc2CCc2ccccc21 [amitriptyline]
plasma concentration that begins to cause cardiac toxicity ([2]; in vivo): ~1,000 ng/ml | bound in plasma [3]: 94.8±0.8%
